Patent publication US4868117A, “BBM-1675, a new antitumor antibiotic complex” (Bristol-Myers Company, priority 1985, dated 1989)
Where “and” joins values, the source holds several entries; their conditions need not be identical. Identical values can stand only once. Like-named read-outs stand apart in the source and are kept apart here.

Assays:
P-388 leukemia [1] = test: Intravenously implanted P-388 leukemia, i.v. treatment; settings: days 1, 4 and 7, lines in dose order as in E66 (Adriamycin starts with 30)
Procedure: (§1) Lymphocytic leukemia P-388, lymphoid leukemia L-1210, melanotic melanoma B16 and Lewis lung carcinoma were implanted intraperitoneally into male BDF1 mice at an inoculum size of 10^6, 10^5, 5×10^5 and 10^6 cells per mouse, respectively. Graded doses of test compounds were administered to the mice intraperitoneally 24 hours after the tumor inoculation.
(§2) Death or survival of the treated and non-treated mice was recorded daily, and the median survival time (MST) was calculated for each of the test (T) and control (C) groups. […] Second experiments were carried out by intravenous administration of BBM-1675 components against P-388 and L-1210 leukemias, which were inoculated intravenously at 5×10^5 and 10^4 cells per mouse, respectively.

L-1210 leukemia [2] = test: Intravenously implanted L-1210 leukemia, i.v. treatment; settings: days 1, 4 and 7, lines in dose order as in E71 (Adriamycin starts with 16)
Procedure: as §1, §2

P-388 leukemia [3] = settings: for Therapeutic index, LD50/MED: MED = minimum effective dose
Procedure: as §1, §2

L-1210 leukemia [4] = settings: i.p., qd 1→9
Procedure: as §1
(§3) Death or survival of the treated and non-treated mice was recorded daily, and the median survival time (MST) was calculated for each of the test (T) and control (C) groups.

male ddY mice = test: Toxicity (LD50) in male ddY mice; settings: multiple dose (qd 1→9), i.p.
[5] = i.p., qd 1→9, lines in dose order as in E48
[6] = i.p., qd 1→11, lines in dose order as in E53

Procedure for B16 melanoma: as §1, §3
Procedure for Lewis lung carcinoma: as §1, §3

## COc1cccc2c1C(=O)c1c(O)c3c(c(O)c1C2=O)C[C@@](O)(C(=O)CO)C[C@@H]3O[C@H]1C[C@H](N)[C@H](O)[C@H](C)O1 [Adriamycin, adriamycin]
P-388 leukemia [1]
  Survivors on day 5: 0/6 and 6/6
  Survivors on day 45: 0/6
L-1210 leukemia [2]
  Survivors on day 5: 2/6 and 6/6
  Survivors on day 45: 0/6

## CO[C@@H]1[C@H](O)C[C@@H](O[C@@H]2C[C@H](Oc3cc4cc5c(c(O)c4c(O)c3C)C(=O)[C@@H](O[C@H]3C[C@@H](O[C@H]4C[C@@H](O[C@H]6C[C@](C)(O)[C@@H](OC(C)=O)[C@H](C)O6)[C@H](O)[C@@H](C)O4)[C@H](O)[C@@H](C)O3)[C@H]([C@H](OC)C(=O)[C@@H](O)[C@@H](C)O)C5)O[C@H](C)[C@@H]2OC(C)=O)O[C@@H]1C [Chromomycin A3, chromomycin A3]
P-388 leukemia [3]; P-388, qd 1→9
  Therapeutic index, LD50/MED: 8
P-388 leukemia [3]; P-388, single
  Therapeutic index, LD50/MED: 8
P-388 leukemia [3]; mouse, in vivo, ip
  Survivors on day 45: 0/5 and 1/5
B16 melanoma; B16, MED = minimum effective dose
  Therapeutic index, LD50/MED: 23
B16 melanoma; [5]
  MST: 23.0 days and 21.0 days
  Survivors on day 5: 6/6
  Survivors on day 45: 0/6
B16 melanoma; mouse, in vivo, ip
  MST: 18.0
L-1210 leukemia [4]; lines in dose order as in E43
  MST: 8.5 days and 11.0 days and 10.0 days
  Survivors on day 5: 6/6
  Survivors on day 45: 0/6
L-1210 leukemia [4]; ≥[…] significant, mg/kg/day in line order: A1 0.003,0.001,0.0003,0.0001, A2 0.03,0.01,0.003,0.001,0.0003, chromomycin A3 0.3,0.1,0.03,0.01,0.003
  T/C: 89%
Lewis lung carcinoma; LL, MED = minimum effective dose
  Therapeutic index, LD50/MED: 23
Lewis lung carcinoma; [6]
  Survivors on day 5: 6/6 and 5/5
  Survivors on day 45: 1/6 and 0/6
Lewis lung carcinoma; mouse, in vivo, ip
  MST: 17.0
  Survivors on day 45: 0/5
Male ddY mice
  LD50: 0.23 mg/kg/day
